Source: patent publication US10509041B2, “Glucose derivative, and cell imaging method and imaging agent using said derivative” (HIROSAKI UNIVERSITY, priority 2014, dated 2019)
Values joined by “and” are separate entries in the source; they are usually repeats but may differ in a detail not shown here. Identical values can stand only once.

Experiments:
[1] = system: mouse insulinoma cells (MIN6); assay: Increase in fluorescence intensity (uptake) after administration of fluorescent glucose derivative to MIN6 cells, influence of cytochalasin B (CB) or phloretin (PHT), fluorescence microplate reader; format: cell-based; settings: 2-NBDG 200 μM, 5 minutes; CB 10 μM; MIN6 13 days of culture; average, two independent experiments
Method: Increase in fluorescence intensity caused by the administration of CDG, and the influence of a glucose transporter (GLUT) inhibitor CB thereon were confirmed by targeting MIN6 cells.
A 96-well clear-bottom plate having wells of 8 rows (A to H) and 12 columns (1 to 12) (μClear-PLATE, Greiner Bio-One, BLACK) was used in measurement. A culture solution containing MIN6 cells suspended at a density of 60×10^4 cells/mL was added dropwise at 10 μL/well to the central portion of the well, and then, the plate was left standing for 40 minutes in an incubator for fixation. The cells were cultured by the addition of a culture solution at 200 μL/well (6000 cells/well). For layout, the cells were seeded to wells B to H on the third column and wells A to G on the fifth column. Medium replacement was performed by replacing half the amount with a fresh one once every two days at 0 to 4 DIV (days in vitro) and every day at 5 DIV or later. […]
CDG and 2-NBDG were each independently administered to the wells on the third and fifth columns using an 8-channel pipette such that these derivatives were alternately placed on the same plate. Before the administration, the autofluorescence of each well was measured in advance using a fluorescence microplate reader (Flex Station, Molecular Devices, LLC). […] The measurement was conducted at Bottom Read, Averaging 3, and Photomultiplier sensitivity high. […]

[2] = system: mouse insulinoma cells (MIN6); assay: as above; format: cell-based; settings: 2-NBDG 200 μM, 5 minutes; PHT 150 μM; MIN6 13 days of culture; average, two independent experiments

With O=[N+]([O-])c1ccc(N[C@H]2C(O)O[C@H](CO)[C@@H](O)[C@@H]2O)c2nonc12 (stereo partly drawn) [Compound 2-NBDG, 2-[N-(7-nitrobenz-2-oxa-1,3-diazol-4-yl)amino]-2-deoxy-D-glucose, reference compound] the “fluorescence intensity in the presence of CB relative to the absence of CB” value [1] was 30.8% and 36.4% and the “fluorescence intensity in the presence of PHT relative to the absence of PHT” value [2] was 18.6% and 15.7%.
